Reference: US7432400B2, “Biphenylene compounds” (Ciba Specialty Chemicals Corp., priority 2001, dated 2008)
Values joined by “and” are separate entries in the source; they are usually repeats but may differ in a detail not shown here. Equal entries are not always repeated.

Test: UV absorption (λmax) of the biphenyl compounds as UV filters
Format: physicochemical
Settings: in DMSO

Compound	λmax (DMSO) [nm]
O=C1NC(=O)C(=Cc2ccc(-c3ccc(C=C4C(=O)NC(=O)NC4=O)cc3)cc2)C(=O)N1 [Example 15]	396

Same assay, conditions: in DMSO, at λmax 396 nm

Compound	E (1%, 1 cm)
O=C1NC(=O)C(=Cc2ccc(-c3ccc(C=C4C(=O)NC(=O)NC4=O)cc3)cc2)C(=O)N1 [Example 15]	1134

Same assay, conditions: in dioxane

Compound	λmax (dioxane)
O=C1/C(=C/c2ccc(-c3ccc(/C=C4/C(=O)C5CCN4CC5)cc3)cc2)N2CCC1CC2 [Example 13]	235 nm and 350 nm

Test: as above
Format: physicochemical
Settings: measured in acetonitrile 98/water 2
Description: By way of example, the following Table lists a number of biphenyl compounds according to the invention together with their λmax values (measured in acetonitrile 98/water 2).

Compound	λmax [nm]
CC(C)(C)C1CCC(=O)/C(=C/c2ccc(-c3ccc(/C=C4\CC(C(C)(C)C)CCC4=O)cc3)cc2)C1 (centres unmarked) [Example 1]	357
CCCCCCC1CC/C(=C\c2ccc(-c3ccc(/C=C4\CCC(CCCCCC)C4=O)cc3)cc2)C1=O (centres unmarked) [Example 4]	282
O=C1/C(=C/c2ccc(-c3ccc(/C=C4\CCc5ccccc5C4=O)cc3)cc2)CCc2ccccc21 [Example 2]	351
O=C(/C(=C/c1ccc(-c2ccc(/C=C(/C(=O)c3ccccc3)c3ccccc3)cc2)cc1)c1ccccc1)c1ccccc1 [Example 9]	326
O=C1CCCCC/C1=C\c1ccc(-c2ccc(/C=C3\CCCCCC3=O)cc2)cc1 [Example 6]	337
O=C1CCCCCC/C1=C\c1ccc(-c2ccc(/C=C3\CCCCCCC3=O)cc2)cc1 [Example 7]	315
COc1ccc2c(c1)CC/C(=C\c1ccc(-c3ccc(/C=C4\CCc5cc(OC)ccc5C4=O)cc3)cc1)C2=O [Example 3]	351
O=C1OCCCC/C1=C\c1ccc(-c2ccc(/C=C3\CCCCOC3=O)cc2)cc1 [Example 10]	361
O=C(/C=C/c1ccc(-c2ccc(/C=C/C(=O)c3ccc(F)cc3)cc2)cc1)c1ccc(F)cc1 [Example 5]	358
CC(=O)/C(=C\c1ccc(-c2ccc(/C=C(\C(C)=O)C(=O)OC(C)(C)C)cc2)cc1)C(=O)OC(C)(C)C [Example 11]	345
C/C(=C\c1ccc(-c2ccc(/C=C(\C)C(=O)c3ccccc3)cc2)cc1)C(=O)c1ccccc1 [Example 8]	326
